# Results as given in ChEMBL document CHEMBL1129870, “INCORPORATION OF CONFORMATIONALLY CONSTRAINED PHENYLALANINE DERIVATIVES TIC, SIC, HIC AND NIC INTO A CHOLECYSTOKININ-B/GASTRIN RECEPTOR ANTAGONIST” (Bioorg Med Chem Lett, 1997).
# How the values were obtained:
# [1] = molecular target: T1, Gastrin/cholecystokinin type B receptor (Mus musculus, UniProt P56481); experiment: Evaluated for Cholecystokinin type B receptor antagonistic activity in which 20 pM [125I]BH-CCK-8S was used to label CCKB/gastrin binding sites in mouse cortical homogenates
# T1 sequence (P56481 whole entry): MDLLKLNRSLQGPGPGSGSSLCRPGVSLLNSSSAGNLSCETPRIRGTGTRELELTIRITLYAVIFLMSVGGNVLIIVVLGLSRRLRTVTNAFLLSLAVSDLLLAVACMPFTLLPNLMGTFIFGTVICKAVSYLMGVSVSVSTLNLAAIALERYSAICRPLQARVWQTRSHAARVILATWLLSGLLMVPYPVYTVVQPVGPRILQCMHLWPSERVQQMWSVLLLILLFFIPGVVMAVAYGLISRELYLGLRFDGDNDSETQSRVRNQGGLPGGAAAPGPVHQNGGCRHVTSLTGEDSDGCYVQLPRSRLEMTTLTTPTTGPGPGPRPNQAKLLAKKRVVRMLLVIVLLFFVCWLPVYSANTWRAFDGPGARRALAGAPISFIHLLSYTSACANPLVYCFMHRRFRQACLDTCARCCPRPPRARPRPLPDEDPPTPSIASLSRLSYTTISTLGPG
# [2] = molecular target: T2, Gastrin/cholecystokinin type B receptor (Rattus norvegicus) (UniProt P30553); experiment: Evaluated for Cholecystokinin type B receptor antagonistic activity in isolated lumen-perfused immature rat stomach; assay type: functional, tissue-based
# T2 sequence (whole entry): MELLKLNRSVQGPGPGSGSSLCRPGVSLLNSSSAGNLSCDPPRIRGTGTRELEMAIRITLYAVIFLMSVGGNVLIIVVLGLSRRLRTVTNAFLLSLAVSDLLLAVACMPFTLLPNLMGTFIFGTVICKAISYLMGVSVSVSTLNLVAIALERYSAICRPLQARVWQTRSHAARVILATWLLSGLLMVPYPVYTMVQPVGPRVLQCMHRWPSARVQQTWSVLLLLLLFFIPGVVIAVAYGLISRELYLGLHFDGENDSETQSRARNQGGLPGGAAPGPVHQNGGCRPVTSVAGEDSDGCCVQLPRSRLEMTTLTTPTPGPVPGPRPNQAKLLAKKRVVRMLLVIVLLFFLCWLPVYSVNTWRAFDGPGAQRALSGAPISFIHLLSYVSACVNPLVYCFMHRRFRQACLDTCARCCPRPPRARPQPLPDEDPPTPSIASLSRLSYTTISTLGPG
IC50 [1] [µM],pKB [2],SMILES
0.178,7.64,O=C(O)c1cc(NC(=O)C2Cc3ccccc3CN2C(=O)c2cc3[nH]cnc3cc2C(=O)NCC23CC4CC(CC(C4)C2)C3)cc(C(=O)O)c1 (stereo not given)
0.00501,9.13,O=C(O)c1cc(NC(=O)C2Cc3ccccc3CCCCN2C(=O)c2cc3[nH]cnc3cc2C(=O)NCC23CC4CC(CC(C4)C2)C3)cc(C(=O)O)c1 (stereo not given)
0.00525,9.08,O=C(O)c1cc(NC(=O)[C@H](Cc2ccccc2)NC(=O)c2cc3[nH]cnc3cc2C(=O)NCC23CC4CC(CC(C4)C2)C3)cc(C(=O)O)c1
0.234,7.66,O=C(O)c1cc(NC(=O)C2Cc3ccccc3CCN2C(=O)c2cc3[nH]cnc3cc2C(=O)NCC23CC4CC(CC(C4)C2)C3)cc(C(=O)O)c1 (stereo not given)
0.224,7.93,O=C(O)c1cc(NC(=O)C2Cc3ccccc3CCCN2C(=O)c2cc3[nH]cnc3cc2C(=O)NCC23CC4CC(CC(C4)C2)C3)cc(C(=O)O)c1 (stereo not given)
